Test results as given in patent US9546167B2, “Radiosynthesis of tau radiopharmaceuticals” (The General Hospital Corporation, priority 2013, dated 2017).
Each block holds one compound with its values, some of them ahead of it.

Legend:
[1] = stability of formulated product by HPLC and radio-TLC, clarity and pH; type: physicochemical; details: over a period of 6 hours
Experimental: (§1) Three consecutive productions of [^18F]T807 were carried out to validate this radiopharmaceutical for human use. […] Due to the increased lipophilicity of 1b, an additional HPLC analysis was performed using an X-Select HSS T3 column (4.6×150 mm, 3.5 μm) and eluted with 50% CH3OH/H2O (pH 2 adjusted with HCl) with a flow rate of 1.2 mL/min, monitored at λ=254 nm. Radio-TLC was performed to verify the radiochemical purity of [^18F]T807 using silica gel plates and 80:20 (v/v) CH2Cl2:CH3OH mobile phase. Radio-TLC confirmed high radiochemical purity (>97%). […] The half-life was verified to be 109.7 minutes, as determined by a dose calibrator, and no long lived isotopes were observed (5 days), as determined by analysis on a HPGE detector after ^18F-decay. Formulated [^18F]T807 was free of pyrogens (Charles River Endosafe® PTS), sterile, and passed the Kryptofix® spot test (<50 μg/mL). […] Using this new methodology, [^18F]T807 was successfully validated for human PET studies, meeting all FDA and USP requirements for a PET radiopharmaceutical.

[2] = test system: paired helical filaments of tau (PHF-tau); details: cited from earlier work
[3] = test system: hyperphosphorylated tau fibrillar aggregates; details: PET imaging, human subjects; cited from earlier work
[4] = solubility of precursor in reaction / organic solvents; type: physicochemical
Experimental: The uncorrected radiochemical yield (RCY) of [^18F]T807 was 14±3% (n=3) and the total synthesis time was 60 minutes, including formulation. The product was prepared consistently with >95% radiochemical purity and the specific activity at the end of synthesis was 216±60 GBq/μmol (5837±1621 mCi/μmol). […] Therefore, the precursor could be added remotely to the reaction vial with minimal volume and eliminated the possibility of the precursor precipitating out of solution before use. Moreover, the fluorination condition simultaneously removed the t-BOC protecting group so there was no need for an additional deprotection step. Secondly, without being bound by any theory, it is thought that the protecting group may also be responsible for the higher radiochemical yields by inhibiting side reactions with the —NH of the indole moiety.

[5] = lipophilicity of precursor (HPLC analysis remark); type: physicochemical; details: qualitative
Experimental: as §1

solubility in most organic solvents [4]: only sparingly soluble
Compound: O=[N+]([O-])c1ccc(-c2ccc3c(c2)[nH]c2ccncc23)cn1 [Compound 1a, 7-(6-nitropyridin-3-yl)-5H-pyrido[4,3-b]indole, reference compound]

lipophilicity [5]: increased
solubility in the reaction solvent (DMSO) ([4]; compared with 1a): increased
Compound: CC(C)(C)OC(=O)n1c2ccncc2c2ccc(-c3ccc([N+](=O)[O-])nc3)cc21 [Compound 1b, tert-butyl 7-(6-nitropyridin-3-yl)-5H-pyrido[4,3-b]indole-5-carboxylate]

Continued, compound first:

Compound: [18F]c1ccc(-c2ccc3c(c2)[nH]c2ccncc23)cn1 [[^18F]T807]
pH [1]: 5.5
stability as measured by HPLC and radio-TLC [1]: maintained stability
potency in vitro for paired helical filaments of tau (PHF-tau) [2]: excellent
selectivity in vitro for PHF-tau over Aβ-plaques [2]: excellent

Compound: CC(=C(C#N)C#N)c1ccc2cc(N(C)CCF)ccc2c1 [[^18F]FDDNP]
distinction between amyloid-β plaques and tau [3]: does not distinguish
imaging of hyperphosphorylated tau fibrillar aggregates [3]: effective

Compound: [18F]CCC1CCN(c2ccn3c(n2)nc2ccccc23)CC1 [[^18F]T808, reference compound]
potency in vitro for paired helical filaments of tau (PHF-tau) [2]: excellent
selectivity in vitro for PHF-tau over Aβ-plaques [2]: excellent
